Test results as given in patent US12152174B2, “Adjustably stable adhesive compositions for medical and non-medical uses, and recycling” (THE REGENTS OF THE UNIVERSITY OF CALIFORNIA, priority 2023, dated 2024).

Assays:
[1] = Polymerization and depolymerization of ethanolic precursor on exposure to water or aqueous phosphate buffer; format: physicochemical; conditions: 400 mg/mL ethanolic solution added to aqueous phosphate buffer
Procedure: An ethanolic solution of pure α-lipoic acid L1 was prepared at 400 mg/mL and added to an aqueous phosphate buffer. A metastable sticky polymer was obtained, but within a few minutes (<5 min), the sticky polymer converted to a solid monomeric precipitate with no apparent adhesive property.
At any time prior to or after gelation of the precursor solution, exposure to water triggers dithiolane polymerization which can be exploited for the purposes of isolating a polymer adhesive or for adhering objects together. […] We believe α-lipoic acid undergoes self-catalyzed polymerization followed by stabilization with NHS esters. Nonetheless, the aqueous polymerization appears to be less sensitive and extremely fast irrespective of the solution concentrations. We believe that due to the amphiphilic nature of the α-lipoic acid, it undergoes micelle-like self-reorganization in contact with water, which locally concentrates the cyclic backbone to accelerate the polymerization rate. Furthermore, detailed ^1H NMR experiments of diluted ethanolic solution of the mixtures show excellent stability of the NHS esters even at an extended period. Therefore, this opens the possibility of an on-demand aqueous polymerization from a precursor ethanolic solution, which we considered to be advantageous for translation in medical and other underwater applications. […]

[2] = Gelation of ethanolic adhesive precursor solution; format: physicochemical; conditions: pure solution at similar concentration, extended periods of time
[3] = Storage stability of precursor or polymer against polymerization or depolymerization; format: physicochemical; conditions: coated and heated at 100° C for 4 hrs under vacuum, no stabilizer
From the text: The self-catalysis of α-lipoic acid takes place by the activation of disulfide with a carboxylic acid. Thus, we hypothesized that introduction of a functional group with higher electron density than disulfide will act as a potential competitor of disulfide, thereby suppressing initiation. […] However, the liquid undergoes ultrafast polymerization when brought into contact with water (FIG. 1) to yield an adhesive polymer. We surmise that due to its higher hydration energy, L4 becomes solvated as it comes in contact with water, leading to disulfide activation by the carboxylic acids. This approach provides an adhesive precursor suitable for spray, brush or injection mode of application. […] The coated PET was heated at 100° C. for 4 hrs under vacuum. The heat created a stable, sticky viscoelastic polymer, showing that the stabilizer molecules are also effective at high temperatures. By comparison, for example, pure α-lipoic acid treated under similar conditions also forms a sticky polymer, but within 2-3 days becomes a solid crystalline spot indicating depolymerization of the polymer. Although a stabilizer is needed in many applications that require a prolonged stability, the poly(asparagusic acid) without the stabilizer is sufficiently stable for some uses. […]

[4] = Lap shear tissue adhesion on wet bovine pericardium; conditions: adhesive with 14 mol % L2 vs 7 mol %
Procedure: An atomized spray was initially chosen, as it allows for quick evaporation of ethanol to increase the concentration of the mixture rapidly and eliminate any undesired flow of the adhesive solution on the tissue surfaces. A solution of L1 and L2 (7 mol %) was prepared and sprayed on two pieces of tissue surfaces (40 μL in 1 cm^2) and the two pieces were immediately brought into contact. After forming the lap joints, they were incubated for 2 minutes in PBS at 37° C. for further curing of the polymer network. The lap shear strength after 2 minutes on wet bovine pericardium tissue was >100 kPa, which was only slightly lower than medical-grade superglue (See FIG. 3A). […] The failure mode analyses of the lap joints was performed by applying N-bromo succinimide to the failed tissue surfaces to visually indicate by charge transfer complexation of disulfide functionality and therefore the presence of adhesive polymer. […] The enhanced lap shear strength at longer incubation time is consistent with the enhanced cohesive strength of the polymer network as observed in the rheology analysis of the wet polymer (see FIG. 2E).
Lap shear tissue adhesion was also performed with L3 on both wet bovine pericardium and pig skin.
To study the effect of stabilizer concentration on tissue adhesion strength, another lap shear test was performed with a higher L2 concentration (14 mol %). […]

| time until sticky polymer converted to solid monomeric precipitate (depolymerization) [1] [min] | gel formation [2] | time until sticky polymer becomes solid crystalline spot (depolymerization) [3] [days] | shear strength at higher stabilizer concentration [4] | SMILES |
| --- | --- | --- | --- | --- |
| < 5 | did not form a gel | 2 to 3 |  | O=C(O)CCCCC1CCSS1 (stereo not drawn) [L1, α-lipoic acid] |
|  |  |  | No significant difference | O=C(CCCCC1CCSS1)ON1C(=O)CCC1=O (stereo not shown) [L2, NHS-derivatized lipoic acid] |
